Source: patent US20220023533A1, “SUBCUTANEOUS DELIVERY OF HIGH CONCENTRATION FORMULATIONS” (JAZZ PHRMACETICALS IRELAND LIMITED, priority 2018, published 2022)

Columns and labels:
[1] = cited from earlier work; for pKa3: side chain group; for pKa2: α-ammonium ion; for pKa1: α-carboxyl group
[2] = Osmolality of defibrotide formulations with various buffers and excipients; type: physicochemical
Method: (§1) It is important for pharmaceutical preparations for oral or parenteral administration to be of low-viscosity and/or isotonic. In order to identify buffers or excipients that may lower the viscosity and/or osmolality of defibrotide formulations, a wide-panel screening of various buffers and excipients (including GRAS excipients) was performed using a 200 mg/mL defibrotide formulation.

[3] = Viscosity of defibrotide formulations with various buffers and excipients; type: physicochemical
Method: as §1

| Effect of increasing the defibrotide concentration in the formulation on osmolality [2] | Effect of increasing the defibrotide concentration in the formulation on viscosity [3] | Compound | pI [1] | pKa3 [1] | pKa2 [1] | pKa1 [1] | pKa value ([1]; buffer or excipient) |
| --- | --- | --- | --- | --- | --- | --- | --- |
|  |  | NCCCC[C@H](N)C(=O)O [Lysine] | 9.74 | 10.53 | 8.95 | 2.18 |  |
|  |  | N[C@@H](CS)C(=O)O [Cysteine] | 5.07 |  | 8.18 | 1.96 |  |
|  |  | CC(C)[C@H](N)C(=O)O [Valine] | 5.96 |  | 9.62 | 2.32 |  |
|  |  | N[C@@H](Cc1ccc(O)cc1)C(=O)O [Tyrosine] | 5.66 |  |  |  |  |
|  |  | CC[C@H](C)[C@H](N)C(=O)O [Isoleucine] | 6.02 |  | 9.60 | 2.36 |  |
|  |  | C[C@@H](O)[C@H](N)C(=O)O [Threonine] | 5.60 |  | 9.10 | 2.09 |  |
|  |  | O=C(O)[C@@H]1CCCN1 [Proline] | 6.30 |  | 10.6 | 1.99 |  |
|  |  | O=S(=O)(O)CCN1CCN(CCO)CC1 [HEPES buffer] |  |  |  |  | 7.564 |
|  |  | N=C(N)NCCC[C@H](N)C(=O)O [Arginine] | 10.76 | 12.48 | 9.04 | 2.17 |  |
|  |  | C[C@H](N)C(=O)O [Alanine] | 6.00 |  | 9.69 | 2.34 |  |
|  |  | N[C@@H](Cc1c[nH]c2ccccc12)C(=O)O [Tryptophan] |  |  | 9.39 | 2.83 |  |
| increase | increase | Defibrotide |  |  |  |  |  |
|  |  | CSCC[C@H](N)C(=O)O [Methionine] | 5.74 |  | 9.21 | 2.28 |  |
|  |  | NC(=O)C[C@H](N)C(=O)O [Asparagine] | 5.41 |  | 8.80 | 2.02 |  |
|  |  | N[C@@H](CO)C(=O)O [Serine] | 5.68 |  | 9.15 |  |  |
|  |  | N[C@@H](Cc1ccccc1)C(=O)O [Phenylalanine] | 5.48 |  | 9.13 | 1.83 |  |
